From patent publication US9546153B2, “Bicyclic heterocycle substituted pyridyl compounds useful as kinase modulators” (BRISTOL-MYERS SQUIBB COMPANY, priority 2012, dated 2017) come the findings set out here.

Assay [1] has as its target IRAK4 (Homo sapiens (Human), UniProt Q9NWZ3). The assay is described as follows: IRAK4 Inhibition Assay. The assay is classed as biochemical. The conditions noted are these: ATP 500 μM; IRAK4 0.6 nM; 60 min at room temperature. How it is done: The assays were performed in U-bottom 384-well plates. […] The reaction was initiated by the combination of IRAK4 with substrates and test compounds. The reaction was incubated at room temperature for 60 min. and terminated by adding 45 μL of 35 mM EDTA to each sample. The reaction mixture was analyzed on the Caliper LABCHIP® 3000 (Caliper, Hopkinton, Mass.) by electrophoretic separation of the fluorescent substrate and phosphorylated product.

The test system of assay [2] is TLR2 induced IL-6 in peripheral blood mononuclear cells (PBMCs). The assay is described as follows: PBMC TLR2 Induced IL-6 Assay. The assay is classed as cell-based, human. The following applies: Homo sapiens, PBMC, 5 h, read-out: Cell IC50. In short, it runs like this: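 IL-6 ELISA of supernatants after a 5 h challenge with the TLR2 agonist lipoteichoic acid (10 μg/ml). Before stimulation, human PBMCs (250000 cells/well; RPMI, 10% heat-inactivated FCS) received compound for 30 min at 37° C. Values given as IC50 or EC50.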

Setting [3] is: human PBMCs, 10 μg/ml lipoteichoic acid for 5 hours, IL-6 by ELISA, value without asterisk.

Read-outs that look alike come from different tables or passages of the source.

Sequence of IRAK4 (Q9NWZ3 whole entry, species assumed): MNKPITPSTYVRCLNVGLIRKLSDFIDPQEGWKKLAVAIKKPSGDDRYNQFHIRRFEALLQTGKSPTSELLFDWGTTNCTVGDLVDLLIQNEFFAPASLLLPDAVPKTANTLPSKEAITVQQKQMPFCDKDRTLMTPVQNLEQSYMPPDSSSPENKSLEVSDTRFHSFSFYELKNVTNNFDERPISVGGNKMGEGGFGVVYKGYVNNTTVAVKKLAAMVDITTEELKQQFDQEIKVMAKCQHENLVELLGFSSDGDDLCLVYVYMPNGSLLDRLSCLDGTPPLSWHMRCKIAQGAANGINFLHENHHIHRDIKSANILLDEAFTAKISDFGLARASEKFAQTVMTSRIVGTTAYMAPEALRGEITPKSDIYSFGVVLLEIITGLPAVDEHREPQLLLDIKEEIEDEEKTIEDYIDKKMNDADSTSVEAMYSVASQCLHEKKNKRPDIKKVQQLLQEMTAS

As a reminder, the IC50 is the point on the concentration scale where inhibition reaches its midpoint. For the molecule `CC(C)Nc1cc(Nc2ccc3ncsc3c2)ncc1C(=O)NC12CCC(O)(CC1)C2` [Example 176], the IC50 in assay [1] was determined as 10.3 nM; in assay [2] (setting [3]) it was 489 nM.

For `CC(C)NC(=O)N[C@H](C)CCNC(=O)c1cnc(Nc2ccc3ncsc3c2)cc1NC(C)C` [Example 177], the IC50 in assay [1] was 1.7 nM; in assay [2] (setting [3]) it was 191 nM.

Take `CC(=O)N[C@@H](C)CCNC(=O)c1cnc(Nc2ccc3ncsc3c2)cc1NC(C)C` [Example 178]: the half-inhibitory concentration (IC50) came to 13.8 nM in assay [1] and 405 nM in assay [2] (setting [3]).

Regarding `CC(C)Nc1cc(Nc2ccc3ncsc3c2)ncc1C(=O)NCC[C@H](C)NC(=O)CC(C)(C)O` [Example 179], the IC50 stood at 16.2 nM in assay [1] and 532 nM in assay [2] (setting [3]).

On to `CC(=O)N[C@H](C)CCNC(=O)c1cnc(Nc2ccc3ncsc3c2)cc1NC(C)C` [Example 180], for which the IC50 in assay [1] came out at 3.7 nM; in assay [2] (setting [3]), 415 nM.

`CC(C)NC(=O)N[C@@H](C)CCNC(=O)c1cnc(Nc2ccc3ncsc3c2)cc1NC(C)C` [Example 181]: the half-maximal inhibitory concentration (IC50) in assay [1] was determined as 7.6 nM; in assay [2] (setting [3]), 453 nM.

Regarding `CC(C)Nc1cc(Nc2ccc3ncsc3c2)ncc1C(=O)NCC[C@@H](C)NC(=O)OC(C)C` [Example 183], the results for the IC50 in assay [1] and in assay [2] (setting [3]) were 3.9 nM and 436 nM, respectively.

With `CC(C)Nc1cc(Nc2ccc3ncsc3c2)ncc1C(=O)NCC[C@@H](C)NC(=O)C1CCCC1` [Example 184], the 50% inhibitory concentration (IC50) amounted to 1.9 nM in assay [1] and 215 nM in assay [2].

On to `CC(C)Nc1cc(Nc2ccc3ncsc3c2)ncc1C(=O)NCC[C@@H](C)NC(=O)c1ccccc1` [Example 185], for which the IC50 in assay [1] was 4.4 nM; in assay [2] (setting [3]), 620 nM.

With `CC(C)Nc1cc(Nc2ccc3ncsc3c2)ncc1C(=O)NCC[C@@H](C)NC(=O)[C@@H]1CCC(F)(F)C1` [Example 186], the results for the half-maximal inhibitory concentration (IC50) in assay [1] and in assay [2] (setting [3]) were 2.4 nM and 361 nM, respectively.

Take `CC(C)Nc1cc(Nc2ccc3ncsc3c2)ncc1C(=O)NCC[C@@H](C)NC(=O)[C@@H]1CC[C@@H](F)C1` [Example 187]: the IC50 in assay [1] came out at 2.7 nM; in assay [2] (setting [3]), 324 nM.

For the molecule `CC(C)Nc1cc(Nc2ccc3ncsc3c2)ncc1C(=O)NCC[C@@H](C)NC(=O)CC1CCCCC1(F)F` (stereo partly drawn) [Example 188], the IC50 in assay [1] stood at 2.5 nM; in assay [2] (setting [3]), 508 nM.

As for `CC(C)Nc1cc(Nc2ccc3ncsc3c2)ncc1C(=O)NCC[C@@H](C)NC(=O)CC1CCOCC1` [Example 189], the half-maximal inhibitory concentration (IC50) in assay [1] worked out at 3.4 nM; in assay [2] (setting [3]), 300 nM.

With `CC(C)Nc1cc(Nc2ccc3ncsc3c2)ncc1C(=O)NCC[C@@H](C)NC(=O)CCCC(C)(C)O` [Example 190], the half-maximal inhibitory concentration (IC50) amounted to 3.3 nM in assay [1] and 250 nM in assay [2] (setting [3]).

With `CC(C)Nc1cc(Nc2ccc3ncsc3c2)ncc1C(=O)NCC[C@@H](C)NC(=O)CCCCC(C)(C)O` [Example 191], the IC50 in assay [1] was 3.4 nM; in assay [2] (setting [3]), 451 nM.

On to `CC(C)Nc1cc(Nc2ccc3ncsc3c2)ncc1C(=O)NCC[C@@H](C)NC(=O)CN(C)C` [Example 192], for which the figures for the IC50 in assay [1] and in assay [2] (setting [3]) were 6.1 nM and 264 nM, respectively.

As for `CC(C)Nc1cc(Nc2ccc3ncsc3c2)ncc1C(=O)NCC[C@@H](C)NC(=O)Cn1ccnn1` [Example 193], the IC50 in assay [1] was 3.1 nM; in assay [2] (setting [3]), 345 nM.

`CC(C)Nc1cc(Nc2ccc3ncsc3c2)ncc1C(=O)NCC[C@@H](C)NC(=O)CC1CCCOC1` (stereo partly drawn) [Example 194]: the IC50 in assay [1] worked out at 2.5 nM; in assay [2] (setting [3]) it was 208 nM.

As to `CC(C)Nc1cc(Nc2ccc3ncsc3c2)ncc1C(=O)N[C@H]1CC[C@H](C(=O)NC(C)C)CC1` [Example 195], the concentration for half-maximal inhibition (IC50) in assay [1] was 2 nM; in assay [2] (setting [3]) it was 162 nM.

Regarding `CC(C)Nc1cc(Nc2ccc3ncsc3c2)ncc1C(=O)N[C@H]1CC[C@H](C(=O)NCC(C)(C)O)CC1` [Example 196], the 50% inhibitory concentration (IC50) was 3.5 nM in assay [1] and 325 nM in assay [2] (setting [3]).

For `CC(C)Nc1cc(Nc2ccc3ncsc3c2)ncc1C(=O)NCC[C@@H](C)NC(=O)[C@@H]1CC[C@H](F)C1` [Example 198], the half-maximal inhibitory concentration (IC50) amounted to 2.6 nM in assay [1] and 307 nM in assay [2] (setting [3]).
